Results: US20120129897A1, “BIS HETEROARYL INHIBITORS OF PRO-MATRIX METALLOPROTEINASE ACTIVATION” (priority 2010, published 2012)

Legend:
MMP9 = target: T1, MMP9 (Rattus norvegicus, UniProt P50282); experiment: Western blot of pro and active MMP9 in ankles of rats with SCW-induced arthritis; type: in vivo; settings: Day 26, four hours after AM dose; for Abundance of proMMP9 in ankles: mAb-L51/82, FIG. 3A
T1 construct: Pro and active MMP9 were abundantly present in ankles of SCW-induced vehicle-treated rats; from tissue; host or cells: ankle (tibia-tarsus joint) homogenate, female Lewis rats
T1 sequence (P50282 108-708): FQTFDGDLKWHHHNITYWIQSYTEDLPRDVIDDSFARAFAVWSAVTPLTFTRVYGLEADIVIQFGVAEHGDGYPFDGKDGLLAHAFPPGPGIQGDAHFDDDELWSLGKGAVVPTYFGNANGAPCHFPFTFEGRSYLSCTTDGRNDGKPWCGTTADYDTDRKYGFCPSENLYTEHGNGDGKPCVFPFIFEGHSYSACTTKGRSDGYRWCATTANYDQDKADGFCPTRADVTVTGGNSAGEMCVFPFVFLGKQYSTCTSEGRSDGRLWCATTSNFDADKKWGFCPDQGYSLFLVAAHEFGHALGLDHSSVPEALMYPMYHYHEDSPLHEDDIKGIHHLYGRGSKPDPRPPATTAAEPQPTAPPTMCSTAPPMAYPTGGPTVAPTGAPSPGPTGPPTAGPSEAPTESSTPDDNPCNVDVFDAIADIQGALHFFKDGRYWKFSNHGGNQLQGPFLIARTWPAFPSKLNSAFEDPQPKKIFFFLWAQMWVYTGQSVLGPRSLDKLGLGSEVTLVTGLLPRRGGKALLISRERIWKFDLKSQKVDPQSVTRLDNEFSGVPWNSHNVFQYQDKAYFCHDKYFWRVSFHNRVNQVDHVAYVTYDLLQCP
Experimental: Hind-limbs were skinned, severed just above the tibia-tarsus joint and below the metatarsals, and the tibia-tarsus joints (ankles) were weighed, snap frozen and pulverized on dry ice using a hammer and anvil. The pulverized tissue was suspended in 3 volumes (w:v) of ice-cold homogenization buffer containing 50 mM Tris pH 7.5, 150 mM NaCl, 5 mM EDTA, 1% Triton X100, 0.05% Brij 30, 10% dimethylsulfoxide and Complete EDTA-free Protease Inhibitor Cocktail (Roche Diagnostics). The suspended tissue was homogenized sequentially with a Kinematica AG Polytron and a Dounce homogenizer. Homogenates were centrifuged at 16,000×g for 10 min at 4° C. and the soluble fractions were saved. Dimethylsulfoxide was removed from a portion of each soluble fraction using PD MiniTrap™ G-25 desalting columns (GE Healthcare). Homogenates (0.25 mL), free of DMSO, were diluted with an equal volume of binding buffer (i.e., homogenization buffer without dimethylsufoxide) and adjusted to contain 50 μL of a 50% slurry of gelatin-conjugated sepharose. Following 2 hours of rotation at 4° C. the beads were washed twice in binding buffer and eluted in 100 μL 2×-reducing Laemmli buffer with heating to 95° C. for 5 minutes. Eluates (20 μL) were resolved on 4-12% NuPAGE gels, transferred to 0.45 μm pore-sized nitrocellose and immunoblotted for detection of proMMP9, active MMP9, and other processed forms using mAb-L51/82 and pAb-1246 as described above for detection of MMP9 forms in synoviocyte and HFL-1 cell conditioned media.
Rats in the study reported in Tables 4 and 5 were sacrificed on Day 26 four hours after the AM dose. Ankles harvested from the right-hind-limbs were processed by the method described above. Pro and active MMP9 were abundantly present in ankles of SCW-induced vehicle-treated rats (FIGS. 3A and 3B, lanes 1-3).

proMMP9 = target: T2, proMMP9 (Rattus norvegicus, UniProt P50282); experiment: Activation of proMMP9 in rat synoviocyte cultures (Western blot); type: cell-based; settings: for Signal of 80 kD band (INT*mm^2): final 48 hrs, TNFα-stimulated, pAb-1246; for 80 kD active MMP9 form detected with mAb L51/82 / 80 kD active MMP9 detected with pAb-1246: 0.37-10 μM; for 80 kD active MMP9 form detected with mAb L51/82: FIG. 1A; for 80 kD active MMP9 detected with pAb-1246: FIG. 1B
T2 construct: endogenous in cells; host or cells: primary synoviocytes from arthritic female Lewis rats
T2 sequence (P50282 20-708 limits assumed): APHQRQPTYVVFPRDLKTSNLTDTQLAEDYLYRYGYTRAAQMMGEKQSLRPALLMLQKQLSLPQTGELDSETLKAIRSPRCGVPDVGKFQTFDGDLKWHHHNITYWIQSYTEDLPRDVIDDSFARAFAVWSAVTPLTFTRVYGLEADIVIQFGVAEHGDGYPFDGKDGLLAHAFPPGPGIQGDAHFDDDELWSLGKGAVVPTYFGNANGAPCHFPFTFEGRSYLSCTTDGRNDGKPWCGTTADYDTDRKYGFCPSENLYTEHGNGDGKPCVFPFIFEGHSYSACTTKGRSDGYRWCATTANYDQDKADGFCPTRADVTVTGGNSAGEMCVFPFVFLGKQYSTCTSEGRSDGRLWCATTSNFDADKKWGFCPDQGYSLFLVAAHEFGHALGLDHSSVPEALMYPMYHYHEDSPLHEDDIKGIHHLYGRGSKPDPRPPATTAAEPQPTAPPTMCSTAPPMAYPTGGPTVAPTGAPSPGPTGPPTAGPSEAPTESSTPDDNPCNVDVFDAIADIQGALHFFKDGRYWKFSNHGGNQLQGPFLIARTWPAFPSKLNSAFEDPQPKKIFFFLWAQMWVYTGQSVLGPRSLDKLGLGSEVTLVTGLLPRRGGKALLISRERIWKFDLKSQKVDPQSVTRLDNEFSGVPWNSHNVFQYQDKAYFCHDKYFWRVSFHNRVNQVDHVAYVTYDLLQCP
Source text: A primary synoviocytes line was derived from the periarticular tissue of arthritic rats. Arthritis was induced in female Lewis rats following an i.p. administration of streptococcal cell wall peptidoglycan polysaccharides (J Exp Med 1977; 146:1585-1602). Rats with established arthritis were sacrificed, and hind-limbs were severed, immersed briefly in 70% ethanol, and placed in a sterile hood. The skin was removed and the inflamed tissue surrounding the tibia-tarsal joint was harvested using a scalpel. Tissue from six rats was pooled, minced to approximately 8 mm^3 pieces, and cultured in Dulbecco's Modified Eagle's Medium (DMEM) containing 15% fetal calf serum (FCS). In the following weeks, cells migrated out of the tissue piece, proliferated, and formed a monolayer of adherent cells. The synoviocytes were lifted from culture plates with 0.05% trypsin and passaged weekly at 1:4 ratios in DMEM containing 10% FCS. Synoviocytes were used at passage 9 to investigate the ability of Compound-α to inhibit the maturation of MMP9 to active form.
Rat synoviocytes spontaneously expressed and activated MMP9 when cultured in collagen gels and stimulated with tumor necrosis factor-alpha (TNFα) (FIG. 1 and Table 3). Eight volumes of an ice-cold solution of 3.8 mg/mL rat tail collagen (Sigma Cat #C3867-1VL) were mixed with 1 volume of 1 M sodium bicarbonate and 1 volume of 10× Roswell Park Memorial Institute medium. The pH of the mixture was adjusted to pH 7 with 1 N sodium hydroxide and equal volumes of the pH-adjusted collagen solution were mixed with DMEM containing 0.8 million synoviocytes per mL. One half mL volumes were dispensed into Costar 24-well culture dishes and placed for one hr at 37° C. and 5% CO2, during which time the collagen solution formed a gel. Individual gels were dislodged into wells of 12-well Costar plates containing 1 mL/well of DMEM adjusted to contain 0.05% BSA and 100 ng/mL mouse TNFα (R&D Systems Cat #410-MT-010). […] After overnight culture at 37° C. and 5% CO2, wells were adjusted to contain an additional 0.5 mL of DMEM containing 0.05% BSA and Compound-α at 4× the final desired concentration (final culture volumes were 2 mL). The plates were cultured an additional 48 hrs, at which time 1 mL of conditioned media were harvested into fresh eppendorf tubes containing 40 μL/mL of a 50% slurry of gelatin-conjugated sepharose (GE Healthcare Cat #17-0956-01). Samples were rotated for 2 hrs at 4° C. before centrifugation 1 min×200 g. Supernatants were discarded. The gelatin-sepharose pellets were washed once with 1 mL of ice cold DMEM, resuspended in 50 μL of 2× reducing Leamli buffer and heated 5 min at 95° C. Fifteen μL of eluted proteins were resolved on 4-12% NuPAGE gels and transferred to 0.45 μm pore-sized nitrocellose blots. Next, blots were incubated in blocking buffer (5% milk in Tris-buffered saline containing 0.1% Tween-20) for 1 hr at RT and probed overnight (4° C.) with blocking buffer containing 1 μg/mL primary antibodies. Blots were next probed 1 hr at RT with 1/10,000 dilutions of goat anti-mouse IgG-HRP or goat anti-rabbit IgG-HRP (Santa Cruz) in blocking buffer and developed using SuperSignal® West Fempto Maximum Sensitivity Substrate. Chemiluminesence signal was analyzed using a ChemiDoc imaging system (BioRad Laboratories) and Quantity One® image software. Electrophoretic mobility was estimated based on the mobility of standards (Novex Sharp Pre-Stained Protein Standards P/N 57318).
Mouse mAb-L51/82 (UC Davis/NIH NeuroMab Facility, Antibody Incorporated) was used to detect pro and processed forms of MMP9. Synoviocyte-conditioned media contained an approximately 80 kD form of MMP9 (FIG. 1A, lane 2). […] The 86 kD form was predominant in the presence of 10 μM Compound-α (FIG. 1A, lane 6). Lane 1 was loaded with a standard containing 3 ng of full-length rat proMMP9(1-708) (SEQ ID NO:11) and 3 ng of full-length rat proMMP9(1-708) (SEQ ID NO:11) converted to catalytic rat MMP9 by catalytic MMP3. […]

Abundance of proMMP9 in ankles (MMP9): did not reduce the abundance of proMMP9
Abundance of proMMP9 in ankles (MMP9; listed as Compound a): did not reduce the abundance of proMMP-9
Signal of 80 kD band (INT*mm^2) (proMMP9; 0.37 μM): 74381 INT*mm^2
Signal of 80 kD band (INT*mm^2) (proMMP9; 1.1 μM): 45381 INT*mm^2
Signal of 80 kD band (INT*mm^2) (proMMP9; 3.3 μM): 11554 INT*mm^2
Signal of 80 kD band (INT*mm^2) (proMMP9; 10 μM): 2578 INT*mm^2
80 kD active MMP9 form detected with mAb L51/82 (proMMP9): reduced in a dose dependent fashion
80 kD active MMP9 detected with pAb-1246 (proMMP9): dose-dependent reduction in active MMP9
SMILES: Cc1nc(C)c(-c2csc(Nc3cc(S(N)(=O)=O)ccc3OC(C)C)n2)s1 [Compound-α, 3-(2′,4′-Dimethyl-[4,5′]bithiazolyl-2-ylamino)-4-isopropoxy-benzenesulfonamide.HBr]
Active 80 kD form of MMP9 in ankles (MMP9; pAb-1246 and mAb-L51/82, FIG. 3): notable reduction in the active 80 kD form of MMP9
80 kD active MMP9 form detected with mAb L51/82 (proMMP9; listed as Compound a): dose-dependent reduction in the appearance of the 80 kD active form of MMP9
80 kD active MMP9 detected with pAb-1246 (proMMP9; listed as Compound α): dose-dependent reduction in the appearance of the 80 kD active form of MMP9
